Patent US20260262643A1, “HERBICIDAL BENZOXAZINES” (FMC CORPORATION, priority 2022, published 2026)

Columns and labels:
wheat [1] = experiment: Test C preemergence; format: in vivo, Triticum aestivum; conditions: preemergence, 0 to 100 scale (0 no effect, 100 complete control)
Method in brief: (§1)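 Greenhouse herbicide screen, 10-day duration. Test chemicals in solvent/surfactant blend were sprayed onto soil at sowing (pre) or onto 2–10 cm seedlings at one to two leaves (post); injury scored visually against controls, 0 no effect to 100 complete control.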

ducksalad = experiment: Test D flooded paddy test; format: in vivo, Heteranthera limosa; conditions: 250 g ai/ha, applied to paddy water, visual rating after 13 to 14 days, scale 0 to 100 (0 no effect, 100 complete control)
Method in brief: (§2)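 Post-flood water application at the 2-leaf stage; 3 cm flood depth kept constant; visual control rating 0–100 after 13–14 days greenhouse growth.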

blackgrass [2] = experiment: Test C postemergence; format: in vivo, Alopecurus myosuroides; conditions: 10 days, 0 to 100 scale (0 no effect, 100 complete control)
Method in brief: as §1

ryegrass, Italian [3] = experiment: Test C postemergence; format: in vivo, Lolium multiflorum; conditions: 10 days, 0 to 100 scale (0 no effect, 100 complete control)
Method in brief: as §1

oat, wild [4] = experiment: Test C preemergence; format: in vivo, Avena fatua; conditions: preemergence, 0 to 100 scale (0 no effect, 100 complete control)
Method in brief: as §1

green foxtail [5] = experiment: Test C preemergence; format: in vivo, Setaria viridis; conditions: preemergence, 0 to 100 scale (0 no effect, 100 complete control)
Method in brief: as §1

pigweed, palmer [6] = experiment: Test C postemergence; format: in vivo, Amaranthus palmeri; conditions: 10 days, 0 to 100 scale (0 no effect, 100 complete control)
Method in brief: as §1

barnyardgrass [7] = experiment: Test C postemergence; format: in vivo, Echinochloa crusgalli; conditions: 10 days, 0 to 100 scale (0 no effect, 100 complete control)
Method in brief: as §1

soybean [8] = experiment: Test C postemergence; format: in vivo, Glycine max; conditions: 10 days, 0 to 100 scale (0 no effect, 100 complete control)
Method in brief: as §1

barnyardgrass [9] = experiment: Test C preemergence; format: in vivo, Echinochloa crusgalli; conditions: preemergence, 0 to 100 scale (0 no effect, 100 complete control)
Method in brief: as §1

ragweed [10] = experiment: Test C postemergence; format: in vivo, Ambrosia artemisiifolia; conditions: 10 days, 0 to 100 scale (0 no effect, 100 complete control)
Method in brief: as §1

galium = experiment: Test C postemergence; format: in vivo, Galium aparine; conditions: 10 days, 0 to 100 scale (0 no effect, 100 complete control)
Method in brief: as §1

oat, wild [11] = experiment: Test C postemergence; format: in vivo, Avena fatua; conditions: 10 days, 0 to 100 scale (0 no effect, 100 complete control)
Method in brief: as §1

corn [12] = experiment: Test C preemergence; format: in vivo, Zea mays; conditions: preemergence, 0 to 100 scale (0 no effect, 100 complete control)
Method in brief: as §1

corn [13] = experiment: Test C postemergence; format: in vivo, Zea mays; conditions: 10 days, 0 to 100 scale (0 no effect, 100 complete control)
Method in brief: as §1

wheat [14] = experiment: Test C postemergence; format: in vivo, Triticum aestivum; conditions: 10 days, 0 to 100 scale (0 no effect, 100 complete control)
Method in brief: as §1

blackgrass [15] = experiment: Test C preemergence; format: in vivo, Alopecurus myosuroides; conditions: preemergence, 0 to 100 scale (0 no effect, 100 complete control)
Method in brief: as §1

horseweed = experiment: Test C postemergence; format: in vivo, Erigeron canadensis; conditions: 10 days, 0 to 100 scale (0 no effect, 100 complete control)
Method in brief: as §1

barnyardgrass [16] = experiment: Test D flooded paddy test; format: in vivo, Echinochloa crus-galli; conditions: 250 g ai/ha, applied to paddy water, visual rating after 13 to 14 days, scale 0 to 100 (0 no effect, 100 complete control)
Method in brief: as §2

kochia [17] = experiment: Test C postemergence; format: in vivo, Bassia scoparia; conditions: 10 days, 0 to 100 scale (0 no effect, 100 complete control)
Method in brief: as §1

ryegrass, Italian [18] = experiment: Test C preemergence; format: in vivo, Lolium multiflorum; conditions: preemergence, 0 to 100 scale (0 no effect, 100 complete control)
Method in brief: as §1

sedge, umbrella = experiment: Test D flooded paddy test; format: in vivo, Cyperus difformis; conditions: 250 g ai/ha, applied to paddy water, visual rating after 13 to 14 days, scale 0 to 100 (0 no effect, 100 complete control)
Method in brief: as §2

soybean [19] = experiment: Test C preemergence; format: in vivo, Glycine max; conditions: preemergence, 0 to 100 scale (0 no effect, 100 complete control)
Method in brief: as §1

kochia [20] = experiment: Test C preemergence; format: in vivo, Bassia scoparia; conditions: preemergence, 0 to 100 scale (0 no effect, 100 complete control)
Method in brief: as §1

ragweed [21] = experiment: Test C preemergence; format: in vivo, Ambrosia artemisiifolia; conditions: preemergence, 0 to 100 scale (0 no effect, 100 complete control)
Method in brief: as §1

green foxtail [22] = experiment: Test C postemergence; format: in vivo, Setaria viridis; conditions: 10 days, 0 to 100 scale (0 no effect, 100 complete control)
Method in brief: as §1

rice = experiment: Test D flooded paddy test; format: in vivo, Oryza sativa; conditions: 250 g ai/ha, applied to paddy water, visual rating after 13 to 14 days, scale 0 to 100 (0 no effect, 100 complete control)
Method in brief: as §2

pigweed, palmer [23] = experiment: Test C preemergence; format: in vivo, Amaranthus palmeri; conditions: preemergence, 0 to 100 scale (0 no effect, 100 complete control)
Method in brief: as §1

COc1ncn(-c2cccc(C(=O)N3C[C@H](C)Oc4c(C)cccc43)c2)n1 [Compound 307]
80: Plant response rating, Barnyardgrass (barnyardgrass [7]; 500 g ai/ha, postemergence) | Plant response rating, Galium (galium; Postemergence, 125 g ai/ha) | Plant response rating, Oat, Wild (oat, wild [11]; 500 g ai/ha, postemergence) | Plant response rating, Wheat (wheat [14]; 500 g ai/ha, postemergence) | Blackgrass plant response rating (blackgrass [15]; 500 g ai/ha) | Ryegrass, Italian plant response rating (ryegrass, Italian [18]; 500 g ai/ha) | Ryegrass, Italian plant response rating (ryegrass, Italian [18]; Test C, 125 g ai/ha) | Kochia plant response rating (kochia [20]; 500 g ai/ha)
100: Foxtail, Green plant response rating (green foxtail [5]; 500 g ai/ha) | Foxtail, Green plant response rating (green foxtail [5]; Test C, 125 g ai/ha) | Plant response rating, Soybean (soybean [8]; 500 g ai/ha, postemergence) | Plant response rating, Soybean (soybean [8]; Postemergence, 125 g ai/ha) | Soybean plant response rating (soybean [19]; 500 g ai/ha) | Pigweed, Palmer plant response rating (pigweed, palmer [23]; 500 g ai/ha)
40: Barnyardgrass plant response rating (barnyardgrass [9]; Test C, 125 g ai/ha) | Blackgrass plant response rating (blackgrass [15]; Test C, 125 g ai/ha) | Plant response rating, Kochia (kochia [17]; Postemergence, 125 g ai/ha) | Kochia plant response rating (kochia [20]; Test C, 125 g ai/ha)
70: Plant response rating, Blackgrass (blackgrass [2]; Postemergence, 125 g ai/ha) | Plant response rating, Ryegrass, Italian (ryegrass, Italian [3]; 500 g ai/ha, postemergence) | Plant response rating, Kochia (kochia [17]; 500 g ai/ha, postemergence)
30: Plant response rating, Horseweed (horseweed; 500 g ai/ha, postemergence)
50: Oat, Wild plant response rating (oat, wild [4]; Test C, 125 g ai/ha) | Plant response rating, Pigweed, Palmer (pigweed, palmer [6]; 500 g ai/ha, postemergence) | Plant response rating, Barnyardgrass (barnyardgrass [7]; Postemergence, 125 g ai/ha) | Plant response rating, Ragweed (ragweed [10]; 500 g ai/ha, postemergence) | Plant response rating, Corn (corn [13]; 500 g ai/ha, postemergence) | Ragweed plant response rating (ragweed [21]; 500 g ai/ha)
90: Wheat plant response rating (wheat [1]; 500 g ai/ha) | Plant response rating, Blackgrass (blackgrass [2]; 500 g ai/ha, postemergence) | Oat, Wild plant response rating (oat, wild [4]; 500 g ai/ha) | Barnyardgrass plant response rating (barnyardgrass [9]; 500 g ai/ha) | Plant response rating, Galium (galium; 500 g ai/ha, postemergence) | Plant response rating, Foxtail, Green (green foxtail [22]; 500 g ai/ha, postemergence)
0: Plant response rating, Ducksalad (Flood) (ducksalad) | Plant response rating, Ragweed (ragweed [10]; Postemergence, 125 g ai/ha) | Corn plant response rating (corn [12]; Test C, 125 g ai/ha) | Plant response rating, Barnyardgrass (Flood) (barnyardgrass [16]) | Plant response rating, Sedge, Umbrella (Flood) (sedge, umbrella) | Ragweed plant response rating (ragweed [21]; Test C, 125 g ai/ha) | Plant response rating, Rice (Flood) (rice)
10: Wheat plant response rating (wheat [1]; Test C, 125 g ai/ha) | Corn plant response rating (corn [12]; 500 g ai/ha) | Plant response rating, Corn (corn [13]; Postemergence, 125 g ai/ha) | Plant response rating, Wheat (wheat [14]; Postemergence, 125 g ai/ha)
20: Plant response rating, Pigweed, Palmer (pigweed, palmer [6]; Postemergence, 125 g ai/ha) | Plant response rating, Oat, Wild (oat, wild [11]; Postemergence, 125 g ai/ha) | Plant response rating, Horseweed (horseweed; Postemergence, 125 g ai/ha) | Soybean plant response rating (soybean [19]; Test C, 125 g ai/ha)
60: Plant response rating, Ryegrass, Italian (ryegrass, Italian [3]; Postemergence, 125 g ai/ha) | Plant response rating, Foxtail, Green (green foxtail [22]; Postemergence, 125 g ai/ha) | Pigweed, Palmer plant response rating (pigweed, palmer [23]; Test C, 125 g ai/ha)
